Assay results reported in patent US20260240885A1, “PHOSPHORYLATED HEXAACYL DISACCHARIDES FOR TREATING OR PREVENTING ACUTE KIDNEY INJURY” (VANDERBILT UNIVERSITY, priority 2022, published 2026).
“Also recorded” adds a separate entry of the source.

Assays:
unilateral IRI-AKI = experiment: Unilateral IRI-AKI (left renal pedicle clamping 28 min with contralateral nephrectomy) in mice pretreated with PHAD; assay type: in vivo, mouse (male BALB/c)
Protocol: (§1) A blinded, randomized controlled study in mice, assessed the efficacy of intravenous 3D 6-Acyl phosphorylated hexa-acyl disaccharide (PHAD, a de novo ultrapure synthetic toll-like receptor 4 agonist), to protect against IRI-AKI. Two cohorts of male BALB/c mice received intraperitoneal vehicle or PHAD (10, 20, or 40 μg); or intravenous vehicle or PHAD (2, 20, or 200 μg) at 48 and 24 hours prior to unilateral renal pedicle clamping and simultaneous contralateral nephrectomy (unilateral IRI-AKI). In a separate cohort, mice were treated with vehicle or 200 μg of PHAD followed by bilateral IRI-AKI. Mice were monitored for 3 days after reperfusion and euthanized.
(§2) Kidney function was assessed by blood urea nitrogen (BUN) and serum creatinine measurements. Kidney tubular injury was assessed by semi-quantitative analysis of tubular morphology on PAS-stained kidney sections, and kidney mRNA quantification of injury (N-Gal, Kim-1 and HO-1) and inflammation (IL-6, IL-1b and TNF-α) using qRT-PCR technique. Additional studies were conducted using immunohistochemistry to quantify Kim-1 and F4/80 protein to assess kidney injury and macrophages, respectively. […] Histological injury and N-Gal mRNA were lower, and IL-1b mRNA higher in 200 μg 3D 6-Acyl PHAD treated mice.
(§3) Ischemia Reperfusion Induced Acute Kidney Injury. Male BALB/c mice, 10- to 11-weeks old (22 to 25 g) were purchased from Charles River (Hollister, CA), and were allowed to acclimate for one week prior to studies. IRI-AKI surgery was performed under ketamine/xylazine anesthesia (120 mg/kg [3 mg ketamine], 12 mg/kg [0.3 mg] xylazine) administered in 100 μl sterile saline by intraperitoneal (IP) injection. Mice underwent two types of surgery to induce IRI-AKI. Unilateral IRI-AKI with contralateral nephrectomy (unilateral IRI), and in separate cohorts, bilateral IRI-AKI. For unilateral IRI, the mouse was placed prone on a heat pad set to 37° C., and incisions were made in the muscle and skin to exteriorize the right kidney for nephrectomy. The adrenal gland was displaced from the kidney, and 5-0 silk suture (Ethicon, LA53G) was tied around the renal artery, vein, and ureter with a double surgical knot, before the kidney was removed by cutting distally to the knot. The left kidney was then exteriorized, and fat and connective tissue were dissected from the renal pedicle to expose the renal artery and vein. A vascular clamp (Roboz, cat #RS-5459) was applied to the renal vasculature for 28 minutes. The kidney was tucked back under the skin and the mouse was kept warm on the heat pad during the 28 minutes of ischemia time. For bilateral IRI-AKI, mice underwent bilateral renal artery ischemia for 24 minutes without nephrectomy. Successful ischemia was confirmed by a dark purple appearance of the kidney prior to clamp removal, and successful reperfusion was confirmed by a return to the normal pink color of the kidney within 1-2 min of clamp removal. Upon removing the vascular clamp, the muscle wall was closed with 6-0 absorbable suture (Ethicon, J492G) followed by skin closure with 7 mm wound clips (Roboz, RS-9255, RS-9250). Upon skin closure, mice received 0.5 ml of warm sterile saline subcutaneous (SQ) immediately after surgery, and at 24 hours after surgery. Analgesia was provided with buprenorphine SQ immediately after surgery and every 12 hours for 3 days. Sham operated mice underwent the same surgical approaches (for unilateral IRI-AKI, they underwent right nephrectomy, but the left renal pedicle was not clamped, and for bilateral IRI-AKI, both kidneys were exteriorized but the renal pedicles were not clamped). Blood was collected at baseline (prior to injury), and days 1 and 3 after injury by submandibular vein puncture into a lithium-heparin coated microcuvette tubes, and plasma frozen at −80° C. for blood urea nitrogen (BUN) and creatinine assays. […]

bilateral IRI-AKI = experiment: Bilateral IRI-AKI (bilateral renal pedicle clamping 24 min) in mice pretreated with PHAD; assay type: in vivo, mouse (male BALB/c)
Protocol: as §1, §2, §3

[1] = IV PHAD 2, 20, 200 μg/mouse 48 and 24 h before injury, vs vehicle, post-injury day 1 and 3 (FIG. 1A)
[2] = IV PHAD 200 μg/mouse 48 and 24 h before injury, 24 and 72 hours after bilateral IRI-AKI (FIG. 2A)
[3] = IV PHAD 200 μg/mouse vs vehicle, Day 3 (FIG. 2F)
[4] = IV PHAD 200 μg/mouse vs vehicle, Day 3 (FIG. 3)

Compound: CCCCCCCCCCCCCC(=O)OC(CCCCCCCCCCC)CC(=O)NC1C(O)OC(COC2OC(CO)C(OP(=O)(O)O)C(OC(=O)CC(CCCCCCCCCCC)OC(=O)CCCCCCCCCCCCC)C2NC(=O)CC(CCCCCCCCCCC)OC(=O)CCCCCCCCCCCCC)C(O)C1O.N (stereo not shown) [PHAD, monophosphoryl hexa-acyl Lipid A, 3-Deacyl 6-acyl phosphorylated hexa-acyl disaccharide]
- Histological injury (unilateral IRI-AKI; 200 μg (Example 1)): lower
- IL-1b mRNA (unilateral IRI-AKI; 200 μg (Example 1)): higher
- renal Kim-1 mRNA expression (qRT-PCR) (unilateral IRI-AKI; 200 μg PHAD, Day 3 (FIG. 1E)): no reduction
- renal N-Gal mRNA expression (qRT-PCR) (unilateral IRI-AKI; 200 μg PHAD, Day 3 (FIG. 1E)): reduction in expression
- renal N-Gal mRNA expression (qRT-PCR) (unilateral IRI-AKI; 200 μg PHAD, Day 3 (FIG. 1E), listed as 3D 6-Acyl PHAD): lower
- survival compared with the vehicle control group (unilateral IRI-AKI; 2 and 20 μg pretreatment dose (FIG. 1D)): more mice survived
- BUN levels (unilateral IRI-AKI; [1]): reduced elevations
- creatinine levels (unilateral IRI-AKI; [1]): reduced elevations
- renal IL-1β mRNA (qRT-PCR) (unilateral IRI-AKI; IV PHAD 2, 20, 200 μg/mouse vs vehicle control (FIG. 1E)): dose-dependent increase
- 3-day survival (unilateral IRI-AKI; IV PHAD 2, 20, 200 μg/mouse vs vehicle, log-rank test (FIG. 1D)): no significant improvement in survival
- tubular injury in the cortex and OSOM (PAS-stained sections) (unilateral IRI-AKI; IV PHAD, increasing doses, Day 3 after injury (FIGS. 1B, 1C)): reduced tubular injury
- renal function (unilateral IRI-AKI; pretreatment with PHAD at 48 and 24 h before unilateral IRI-AKI (Example 1)): dose-dependent preservation of renal function
- BUN levels (bilateral IRI-AKI; [2]): reduced
- creatinine levels (bilateral IRI-AKI; [2]): reduced
- 3-day survival (bilateral IRI-AKI; IV PHAD 200 μg/mouse vs vehicle (FIG. 6)): no difference in survival
- renal IL-1β mRNA (qRT-PCR) (bilateral IRI-AKI; [3]): increased
- renal IL-6 mRNA (qRT-PCR) (bilateral IRI-AKI; [3]): no differences
- renal Kim-1 mRNA (qRT-PCR) (bilateral IRI-AKI; [3]): no differences
- renal N-Gal mRNA (qRT-PCR) (bilateral IRI-AKI; [3]): lower levels
- renal Tnf-α mRNA (qRT-PCR) (bilateral IRI-AKI; [3]): no differences
- F4/80 staining for renal macrophages (bilateral IRI-AKI; [4]): no difference in F4/80 staining
- area of cells expressing Kim-1 protein (immunostaining), outer medulla (bilateral IRI-AKI; [4]): significant reduction; also recorded: significantly reduced
- renal expression of Ho-1 mRNA (qRT-PCR) (bilateral IRI-AKI; IV PHAD 200 μg/mouse vs vehicle, Day 3 (FIG. 4A)): reduced
- renal Irf-1 mRNA (qRT-PCR) (bilateral IRI-AKI; IV PHAD 200 μg/mouse vs vehicle, Day 3 (FIG. 4B)): no differences in expression
- renal Ccl-2 mRNA (qRT-PCR) (bilateral IRI-AKI; IV PHAD 200 μg/mouse vs vehicle, Day 3 (FIG. 4C)): no differences in expression
- renal Ccl-3 mRNA (qRT-PCR) (bilateral IRI-AKI; IV PHAD 200 μg/mouse vs vehicle, Day 3 (FIG. 4D)): no differences in expression
- tubular injury (PAS-stained sections, outer stripe of outer medulla) (bilateral IRI-AKI; IV PHAD 200 μg/mouse, Day 3 (FIGS. 2B, 2D)): reduced tubular injury
- apoptosis (TUNEL, outer stripe of outer medulla) (bilateral IRI-AKI; IV PHAD 200 μg/mouse, Day 3 (FIGS. 2C, 2E)): reduced apoptosis
